Source: US11352637B2, “Methods and compositions for herbicide tolerance in plants” (MONSANTO TECHNOLOGY LLC, priority 2017, dated 2022)
Blank lines part the entries; values can stand above or below the compound they belong to.

How the values were obtained:
[1] = system: KsIAA16R in combination with KsAFB6; experiment: Yeast two-hybrid (Y2H) assay: KsIAA16R binding with KsAFB6 in presence of auxin; set-up: species or system Kochia scoparia; conditions: for Interaction between KsIAA16R and KsAFB6 in the presence of the auxin: at the concentrations tested; for Ability of KsIAA16R to interact with KsAFB6 in the presence of the auxin: only the higher concentration could facilitate binding
Protocol: (§1) Yeast two-hybrid (Y2H) studies were conducted using the Matchmaker® Gold Yeast Two-Hybrid System: vectors, transformation protocols and yeast strains (Clonetech Laboratories, Inc.). The coding sequences for the KsIAA16R (SEQ ID NO: 220), KsIAA16S (SEQ ID NO: 218), KsTIR1 (SEQ ID NO: 285), KsAFB6 (SEQ ID NO: 287), KsAFB2 (SEQ ID NO: 289), and KsAFB5 (SEQ ID NO: 291) were PCR amplified using primers specified in Table 2.
(§2) PCR products were gel purified and recombined into NdeI/NotI digested pGADT7 or pGBKT7 vectors using the In-Fusion® cloning system (Clonetech Laboratories, Inc.). The pGBKT7 vector contained the GAL4 DNA binding domain, rendering the fusions as the “bait,” whereas the “prey” were the fusions containing the pGADT7 vector, which contained the GAL4 activation domain. All vectors were first sequence verified and then the listed vector combinations were co-transformed into the yeast strain, Y2HGold. […] Transformants were plated on SC-Trp-Leu plates to select for those containing both plasmids. Four healthy colonies were selected at random and resuspended into 300 μL of 0.1% agar in water. Five μL of this dilution was replica spotted onto each plate. Plates were incubated at 30° C. for 3 days prior to evaluation of colony growth.
(§3) This method enabled the study of the binding/interaction of the Kochia R and S alleles of KsIAA16 with each of the Kochia TIR/AFB homologs (KsTIR1 (SEQ ID NO: 285), and KsAFB6 (SEQ ID NO: 287)) in the absence or presence of 100 μM or 500 μM exogenous concentrations of IAA, NAA, dicamba, and 2,4-D, picloram, triclopyr, quinclorac, fluroxypyr or phenylacetic acid (PAA).

[2] = system: KsIAA16S in combination with KsAFB6; experiment: Yeast two-hybrid (Y2H) assay: KsIAA16S binding with KsAFB6 in presence of auxin; set-up: species or system Kochia scoparia; conditions: allele KsIAA16S; auxin 500 μM; yeast colony growth
Protocol: as §1
PCR products were gel purified and recombined into NdeI/NotI digested pGADT7 or pGBKT7 vectors using the In-Fusion® cloning system (Clonetech Laboratories, Inc.). The pGBKT7 vector contained the GAL4 DNA binding domain, rendering the fusions as the “bait,” whereas the “prey” were the fusions containing the pGADT7 vector, which contained the GAL4 activation domain. All vectors were first sequence verified and then the listed vector combinations were co-transformed into the yeast strain, Y2HGold. […] Transformants were plated on SC-Trp-Leu plates to select for those containing both plasmids. Four healthy colonies were selected at random and resuspended into 300 μL of 0.1% agar in water. Five μL of this dilution was replica spotted onto each plate. Plates were incubated at 30° C. for 3 days prior to evaluation of colony growth. […]

[3] = system: KsIAA16 (R and S alleles) with KsTIR1 and/or KsAFB6; experiment: Y2H assay, summary statements over the protein combinations tested; format: binding, Kochia scoparia; conditions: at the concentrations tested
Protocol: as §1, §2, §3

[4] = system: seedlings of the R and S Kochia biotypes; experiment: Root elongation response of Kochia seedlings; format: in vivo, Kochia scoparia; conditions: R biotype seedlings; FIG. 5
Protocol: The root elongation response of seedlings from the R and S Kochia biotypes was tested to determine if the R biotype response was consistent with the Y2H findings. For root elongation studies, plant nutrient media was used, with 0.5% sucrose. Seeds were surface sterilized in 30% bleach with 0.1% Triton-X100 for 10 to 30 minutes, then rinsed twice in sterile water and resuspended in 0.1% agar for plating. Root lengths were measured to the nearest millimeter, and the average root length of 12 individuals was calculated unless otherwise noted.

[5] = system: transgenic Arabidopsis carrying AtIAA16P:KsIAA16 constructs; experiment: Root elongation inhibition assay of T2 transgenic Arabidopsis on plant nutrient plus IAA or dicamba; format: in vivo, Arabidopsis thaliana
Text: To determine if the presence of the KsIAA16R allele alone was necessary and sufficient to confer dicamba resistance, several transgene expression constructs were generated for study of KsIAA16 in Arabidopsis. Agrobacterium tumefaciens was used to introduce the binary vectors in the plants using the floral dip method (Clough and Bent, 1998). Vectors contained either the ethanol inducible alcA promoter elements (Salter et al., 1998), the constitutive CaMV35S promoter, or the native Arabidopsis IAA16 promoter (AtIAA16P) driving either KsIAA16R (SEQ ID NO: 220) or KsIAA16S (SEQ ID NO: 218). GUS reporter constructs contained a 2.5 kb genomic DNA fragment from directly upstream of KsIAA16, which is expected to contain most of the promoter elements as well as the 5′UTR, driving uidA. All constructs contained either a Spectinomycin resistance gene (SPEC) or a glufosinate resistance gene (BAR) in the T-DNA region to serve as the selectable marker. For all constructs, T1 seed was harvested, surface sterilized, and plated on the appropriate selective media to identify independent T1 transformants. Single seed decent and segregation on selective media was used to estimate transgene insertion number and identify homozygous lines. For induction of the P-Alc promoter, ethanol was added to a final concentration of 0.01% just before plates were poured, and plates were used immediately. All plates were grown in a Percival growth chamber (Percival Scientific, Inc.) at 22° C. with 16 hour day/8 hour night light cycle and a light intensity of […]. Relative humidity was maintained at 50%. GUS assays were performed according to standard protocols. Briefly, a 20 mg/mL X-Gluc (GoldBio, St. Louis, Mo.) stock in dimethylformamide was diluted into 50 mM phosphate buffer, pH 7.0, to a final concentration of 1 mg/mL. This solution was added to plant tissues, and samples were placed under vacuum for 5 minutes to ensure penetration of the solution into the tissues. Samples were covered in foil to prevent light entry and place at 37° C. for 24 hours to allow color development. Staining solution was removed and chlorophyll was cleared by incubating samples in 50% ethanol for several hours.

SMILES: Nc1c(Cl)c(Cl)nc(C(=O)O)c1Cl [Picloram, 4-amino-3,5,6-trichloro-2-pyridinecarboxylic acid]
Interaction between KsIAA16R and KsAFB6 in the presence of the auxin [1]: not observed
Ability to bind in combination with KsAFB6 [2]: observed to interact
Facilitation of interaction of KsIAA16R with KsTIR1 and/or KsAFB6 [3]: cannot

SMILES: O=C(O)c1c(Cl)ccc2cc(Cl)cnc12 [Quinclorac, 3,7-dichloro-8-quinolinecarboxylic acid]
Interaction between KsIAA16R and KsAFB6 in the presence of the auxin [1]: not observed
Ability to bind in combination with KsAFB6 [2]: observed to interact
Facilitation of interaction of KsIAA16R with KsTIR1 and/or KsAFB6 [3]: cannot

Ability of KsIAA16R to interact with KsAFB6 in the presence of the auxin [1]: reduced ability to interact
SMILES: O=C(O)Cc1cccc2ccccc12 [NAA, 2-(1-naphthyl) acetic acid]
Root elongation inhibition of the R Kochia biotype [4]: remained sensitive
Facilitation of interaction of KsIAA16R with KsTIR1 and/or KsAFB6 [3]: can facilitate some interaction

Ability of KsIAA16R to interact with KsAFB6 in the presence of the auxin [1]: reduced ability to interact
SMILES: O=C(O)Cc1c[nH]c2ccccc12 [IAA, indole-3-acetic acid]
Root Length (in mm) of T2 transgenics on plant nutrient plus auxin ([5]; line AtIAA16P:KsIAA16R_T2-1, +5 μM auxin): 12.17 ± 1.01 mm
Root Length (in mm) of T2 transgenics on plant nutrient plus auxin ([5]; line AtIAA16P:KsIAA16R_T2-2, +5 μM auxin): 18.17 ± 3.09 mm
Root Length (in mm) of T2 transgenics on plant nutrient plus auxin ([5]; line AtIAA16P:KsIAA16R_T2-3, +5 μM auxin): 22.75 ± 2.09 mm
Root Length (in mm) of T2 transgenics on plant nutrient plus auxin ([5]; line AtIAA16P:KsIAA16R_T2-4, +5 μM auxin): 27.25 ± 1.88 mm
Root Length (in mm) of T2 transgenics on plant nutrient plus auxin ([5]; line AtIAA16P:KsIAA16S_T2-1, +5 μM auxin): 7.0 ± 0.77 mm
Root Length (in mm) of T2 transgenics on plant nutrient plus auxin ([5]; line AtIAA16P:KsIAA16S_T2-2, +5 μM auxin): 9.5 ± 0.84 mm
Root Length (in mm) of T2 transgenics on plant nutrient plus auxin ([5]; line AtIAA16P:KsIAA16S_T2-3, +5 μM auxin): 5.67 ± 0.54 mm
Root Length (in mm) of T2 transgenics on plant nutrient plus auxin ([5]; line AtIAA16P:KsIAA16S_T2-4, +5 μM auxin): 5 ± 0.34 mm
Root Length (in mm) on plant nutrient plus auxin ([5]; non-transgenic WT, +5 μM auxin): 5.83 ± 0.24 mm
Resistance to root inhibition ([5]; several lines from both constructs): slight resistance
Root elongation inhibition of the R Kochia biotype [4]: remained sensitive
Facilitation of interaction of KsIAA16R with KsTIR1 and/or KsAFB6 [3]: can facilitate some interaction
